What was measured:
Assay type in all cases: cell-based, human
amylase = test: Expression analysis of amylase by quantitative RT-PCR in salivary gland cells; settings: salivary gland cells repeatedly subcultured in Rock inhibitor-containing medium; relative to GAPDH; FIG. 2
Protocol: Salivary gland cells were cultured in the presence or absence of a Rock inhibitor and provided for quantitative RT-PCR assay with a LightCycler 480 (Roche) to analyze amylase expression in these salivary gland cells. The primers used for amylase are as shown below, and the universal probe used was #18. The primers used for glyceraldehyde-3-phosphate dehydrogenase (GAPDH) serving as an endogenous control are as shown below, and the universal probe used was #60. The PCR reaction was conducted in accordance with standard protocols by using a mixture (final reaction volume: 20 μl) containing 10 μl of Probe master (Roche), 0.2 μl of each probe master and the primers. The reaction conditions were set to initial denaturation at 95° C. for 5 minutes and 50 amplification cycles of denaturation at 95° C. for 10 seconds, annealing at 60° C. for 30 seconds and elongation reaction at 60° C. for 60 seconds. The mRNA level of the desired gene was expressed as a relative value to the expression level of GAPDH used as a control.

salivary gland cells [1] = test: Karyotype analysis (Q band technique) of primary cultured salivary gland cells; settings: primary cultured labial gland cells cultured in inhibitor-containing medium; FIG. 5
Protocol: Primary cultured salivary gland cells were cultured in a medium containing a Rock inhibitor and analyzed for the presence or absence of their genetic defect(s) by karyotype analysis. The karyotype analysis test was conducted by Q band technique.

fibroblasts = test: Cell culture of fibroblasts using a Rho kinase inhibitor (cell morphology); settings: inhibitor-containing medium (10 μM); passage 7 with inhibitor vs passage 2 without; FIG. 13
Protocol: (§1) Odontoma cells, oral mucosal epithelial cells, fibroblasts, and cancer-associated fibroblasts (CAFs) (i) Patient-derived cells for use as a source material were taken in a required amount as described above. (ii) The cells were washed three times with phosphate-buffered physiological saline (PBS) (supplemented with 10 units/ml of penicillin and 100 μg/ml of streptomycin: Sigma-Aldrich). (iii) The cells were cut into small pieces with sterilized iris scissors and a surgical knife (No. 11). (iv) After addition of trypsin (TrypLE Select Enzyme, Gibco, Code No. A12177-01), the cells were shaken at 37° C. for 30 minutes. (v) The cells were mixed with Dulbecco's modified Eagle medium (DMEM: Sigma-Aldrich) (supplemented with 10% fetal bovine serum: Nichirei Bioscience Inc., Japan, 10 units/ml of penicillin and 100 μg/ml of streptomycin), and centrifugation (at 1000 rpm for 5 minutes) was repeated three times. (vi) The cells were mixed with DMEM (supplemented with 10% fetal bovine serum, 10 units/ml of penicillin, 100 μg/ml of streptomycin, 10 μM of the Rock kinase inhibitor and 0.3 μM of L-ascorbic acid 2-phosphate: Sigma-Aldrich) (DMEM+) and then seeded into collagen type I-coated cell culture dishes (IWAKI). (vii) The cells were washed with PBS once every three days to replace the above medium. (viii) The cultured cells were subcultured at 80% confluency. […]

odontoma cells = test: Cell culture of odontoma cells using a Rho kinase inhibitor (cell morphology); settings: inhibitor-containing medium (10 μM); passage 5 with inhibitor vs passage 0 without; FIG. 11
Protocol: as §1

[2] = test system: cancer-associated fibroblasts (CAFs); test: Cell culture of cancer-associated fibroblasts using a Rho kinase inhibitor (cell morphology); settings: inhibitor-containing medium (10 μM); passage 7 with inhibitor vs passage 1 without; FIG. 14
Protocol: as §1

[3] = test system: oral mucosal epithelial cells; test: Cell culture of oral mucosal epithelial cells using a Rho kinase inhibitor (cell morphology); settings: inhibitor-containing medium (10 μM); passage 5 with inhibitor vs passage 0 without; FIG. 12
Protocol: as §1

salivary gland cells [4] = test: Primary culture and subculture of salivary gland cells using a Rock inhibitor (cell morphology); settings: Rock inhibitor-containing medium (10 μM), vs standard medium; FIG. 1
Protocol: as §1, with “(i)” for “Odontoma cells, oral mucosal epithelial cells, fibroblasts, and cancer-associated fibroblasts (CAFs) (i)”, “Patient-derived salivary gland” for “Patient-derived”, “from the labial glands of each patient.” for “as described above.”, “1-coated” for “I-coated”, “(i)” for “(viii)”, “confluency. The cells were washed three times with phosphate-buffered physiological saline.” for “confluency.”

## CC(N)[C@H]1CC[C@H](C(=O)Nc2ccncc2)CC1 (stereo partly drawn) [Rock inhibitor, (R)-(+)-trans-N-(4-pyridyl)-4-(1-aminoethyl)-cyclohexanecarboxamide]
amylase
  mRNA expression of amylase: significantly high
Salivary gland cells [1]
  chromosomal/genetic defect(s) in karyotype analysis: No genetic defect was observed
fibroblasts
  cell morphology of fibroblasts on repeated subculture: maintain their cell morphology even when repeatedly subcultured
Odontoma cells
  cell morphology of odontoma cells on repeated subculture: maintain their cell morphology even when repeatedly subcultured
[2]
  cell morphology of cancer-associated fibroblasts on repeated subculture: maintain their cell morphology even when repeatedly subcultured
[3]
  cell morphology of oral mucosal epithelial cells on repeated subculture: maintain their cell morphology even when repeatedly subcultured
Salivary gland cells [4]
  cell morphology of salivary gland cells on repeated subculture: maintain their cell morphology arranged in a cobblestone pattern even when repeatedly subcultured

Reference: patent publication US20170349879A1, “METHOD FOR CULTURING NORMAL CELLS AND ODONTOMA CELLS CONTAINED IN ORAL TISSUE” (CHIBA UNIVERSITY, priority 2014, published 2017)
